The results in this text go back to patent publication US10807951B2, “mTORC1 modulators” (THE REGENTS OF THE UNIVERSITY OF CALIFORNIA, priority 2017, dated 2020).

Experiment [1] relates to mTORC1. Put plainly: mTORC1 signaling in HeLa cells by immunoblotting. The class given is cell-based. The settings on record: for mTORC1-mediated signaling (p-ULK1, pS6K1, p-4E-BP1): amino acid stimulation. How it is done: HeLa cells were subjected to starvation/refeeding protocols as described in the previous section, then lysed in ice-cold lysis buffer (150 mM NaCl, 20 mM HEPES [pH 7.4], 2 mM EDTA, 0.3% CHAPS or 1% Triton X-100, and one tablet of EDTA-free protease inhibitors per 50 ml). Cell lysates were cleared by centrifugation at 13,000 rpm for 10 minutes in a microfuge. Samples were normalized to a total concentration of 1 mg/mL protein and prepared using sample buffer at 1×, then boiled for 5 minutes at 95 C. Samples were loaded onto 10% or 12% SDS-Page gels, and analyzed by immunoblotting.
Several of these compounds were also directly tested for their ability to inhibit mTORC1 signaling in immunoblotting-based assays. […] Thus, we pursued CC 1-44 for further characterization.
(Immunoblotting shows a protein as a band on a membrane.)

In experiment [2] the test system is mTOR. Put plainly: Immunofluorescence of mTOR and LAMP2 in HEK-293A cells. It is filed as cell-based. The settings on record: 2 h. How it is done:
(§1) FIGS. 6A-6D. CC 1-44 inhibits mTORC1 signaling and activates autophagy. (FIG. 6A) Visual IP experiment monitoring binding of GFP-RagB to RFP-tagged, bead-bound Lamtor complex. […] (FIG. 6B) Immunofluorescence for endogenous RagA and LAMP2 in HEK-293A cells treated with DMSO, YP 1-44 or CC 1-44 for 2 h. […] (FIG. 6C) Immunofluorescence for endogenous mTOR and LAMP2 in HEK-293A cells treated with DMSO or CC 1-44 for 2 h. […] (FIG. 6D) Immunoblotting for autophagic markers LC3b and p62 from HEK-293A cells treated with DMSO (lane 1) or CC 1-44 (lane 3) for 2 h.
(§2) Next, we investigated the mechanism of mTORC1 inhibition by CC-1-44 using visual IP and immunofluorescence. […] Indeed, when we visualized RagA and RagC localization in CC 1-44-treated cells, their localization to LAMP2-positive lysosomes was increased, not decreased as for YP 1-44 (FIG. 6B). This observation pointed to a different mechanism for mTORC1 inactivation by CC 1-44. Rather than disrupting the integrity of the LAMTOR-Rag assembly, CC 1-44 prevents its activation, causing it to strongly accumulate at the lysosome in a conformation that is unable to bind to mTORC1.

Experiment [3] relates to RagA and RagC. The experiment in a line: Immunofluorescence of Rag GTPases and LAMP2 in HEK-293A cells. It is filed as cell-based. The settings on record: 2 h. How it is done:
as §1, §2

Experiment [4] deals with LAMTOR5 (Homo sapiens, UniProt O43504). The experiment in a line: Competitive isoTOP-ABPP with purified mTORC1, Rag GTPase and Lamtor complexes. The class given is binding. An excerpt: To identify the specific druggable hotspot targeted by YP 1-44 within the TORC1 complex, we performed a chemoproteomic study using isotopic tandem orthogonal proteolysis-enabled activity-based protein profiling (isoTOP-ABPP). IsoTOP-ABPP uses reactivity-based chemical probes to profile proteome-wide reactive, functional, and druggable hotspots directly in complex proteomes. When used in a competitive manner, small-molecule covalent ligands can be competed against the binding of reactivity-based probes to facilitate the identification of druggable hotspots targeted by lead covalent ligands (5-7) (FIG. 4A). Here, we pre-treated human purified mTORC1, Rag GTPase and Lamtor complexes with either vehicle or YP 1-44, and subsequently labeled this reconstituted system with a broad cysteine-reactive probe iodoacetamide-alkyne (IA-alkyne). Any accessible cysteine druggable hotspot would be labeled with the IA-alkyne probe in the vehicle-treated control, but the site bound by YP 1-44 would no longer accessible to IA-alkyne binding. Subsequently, we used copper-catalyzed azide-alkyne cycloaddition to append an isotopically light (for control) or heavy (for YP 1-44-treated) biotin-azide tag bearing a TEV protease recognition peptide onto probe-labeled proteins, upon which we combined the control and treated proteomes in a 1:1 ratio, followed by avidin-enrichment, tryptic digestion, and elution of probe-modified tryptic peptides by TEV protease. The resulting peptides were analyzed by LC-LC/MS/MS and light-to-heavy ratios of probe-modified peptides were quantified. We identified two cysteines within LAMTOR5, C148 and C23 that were labeled with ratios of 0.51 and 3.7, respectively. If YP 1-44 bound to a particular cysteine, we would expect a higher (>2) light-to-heavy ratio.
IsoTOP-ABPP analyses were performed using a modified version of our previously reported method (PMID 28352901, 28186401). We pre-treated human purified mTORC1, Rag GTPase and Lamtor complexes (5 micrograms each) with DMSO vehicle or YP 1-44 (50 μM) for 30 min at 37° C. in phosphate-buffered saline (PBS), and then labeled with IA-alkyne (100 μM) for 1 h at room temperature. They were subsequently treated with isotopically light (control) or heavy (treated) TEV-biotin (100 μM) and copper-catalyzed azide-alkyne cycloaddition (CuAAC). For analysis of cysteine reactivity in primary colorectal tumor tissue, tumors were pooled and incubated with either 100 μM IA-alkyne and isotopically heavy TEV-biotin or 10 μM IA-alkyne and isotopically light TEV-biotin followed by CuAAC. Proteins were precipitated over one hour and pelleted by centrifugation at 6500×g. Proteins were washed 3 times with cold methanol then denatured and resolubilized by heating in 1.2% SDS/PBS to 85° C. for 5 min. Insoluble components were precipitated by centrifugation at 6500×g and soluble proteome was diluted in 5 ml PBS, for a final concentration of 0.2% SDS. Labeled proteins were bound to avidin-agarose beads (170 μL resuspended beads/sample, Thermo Pierce) while rotating overnight at 4° C. Bead-linked proteins were enriched by washing three times each in PBS and water, then resuspended in 6 M urea/PBS (Sigma-Aldrich) and reduced in dithiothreitol (1 mM, Sigma-Aldrich), alkylated with iodoacetamide (18 mM, Sigma-Aldrich), then washed and resuspended in 2 M urea/PBS with 1 mM calcium chloride and trypsinized overnight with 0.5 μg/μl sequencing grade trypsin (Promega). […]

Where [5] appears, read: compound 50 μM, IA-alkyne 100 μM, average of n=4.

SMILES strings stand for the structures. “And” between values parts separate entries of the source, which are not always exact repeats. Equal entries are not always repeated. “Also recorded” adds a separate entry of the source. Where two headings read alike, the source gives them in different places.

Regarding `C=CC(=O)n1ccc2ccccc21` [YP 1-44], the “mTORC1-mediated signaling (p-ULK1, pS6K1, p-4E-BP1)” value in experiment [1] is “completely inhibited”. For the same molecule, the “mTORC1-mediated signaling (p-ULK1, pS6K1, p-4E-BP1)” value in experiment [1] (listed as YP1-44) was “suppresses mTORC1 activation by amino acids”. Also, the “mTOR/mTORC1 localization to lysosomes” value in experiment [2] is listed as “completely dispersed from lysosomes”. The “RagA and RagC localization to LAMP2-positive lysosomes” value in experiment [3] is “causes RagA dissociation from Lamtor; also recorded: decreased”. Further, the “LAMTOR5 cysteines targeted (isoTOP-ABPP)” value in experiment [4] is “target C23 and C148 of LAMTOR5; also recorded: C23 of LAMTOR5 was the primary site; also recorded: modified C23 and C148 in LAMTOR5”. Besides, in experiment [4] (setting [5]), the “isoTOP-ABPP light-to-heavy ratio, LAMTOR5 C23” value is > 3 and 3.7; the “isoTOP-ABPP light-to-heavy ratio, LAMTOR5 C148” value was determined as 0.51.

Consider `C=CC(=O)N1CCc2c(OCc3cc(C(F)(F)F)cc(C(F)(F)F)c3)cccc21` [CC 1-44], for which the “phosphorylation of canonical mTORC1 substrates S6K1, 4E-BP1 and ULK1” value in experiment [1] (10 μM) was “completely inhibited”. The “potency of mTORC1 blockade relative to YP 1-44” value in experiment [1] (immunoblotting) is on record as “potency comparable to YP 1-44”. Also, the “mTOR/mTORC1 localization to lysosomes” value in experiment [2] is recorded as “induces dissociation of mTOR from lysosomes; also recorded: completely dispersed from lysosomes”. Further, in experiment [3], the “RagA and RagC localization to LAMP2-positive lysosomes” value is “increased RagA clustering on lysosomes”. In addition, the “LAMTOR5 cysteines targeted (isoTOP-ABPP)” value was “modified C23 and C148 in LAMTOR5” in experiment [4]; “target C23 and C148 of LAMTOR5” in experiment [4] (listed as CC-1-44).
